Holding throughout (assay type): biochemical
One assay addresses T1, MMP-3 (Homo sapiens, UniProt P08254).
T1 construct: purchased R & D systems; host or cells: NS0 cells
The assay is described as follows: MMP-3 OmniMMP peptide assay. The following applies: OmniMMP substrate peptide. The protocol: Compounds 5 and 7 were synthesized as previously reported. Full-length human proMMP-9 was produced by recombinant expression in Sf9 insect cells and purified by gelatin-Sepharose chromatography as previously described. Stable full-length proMMP-9 monomers and trimers were separated by glycerol gradient ultracentrifugation as previously described. ProMMP-9 mixture and the separated monomers and trimers were activated by incubation with the catalytic domain of MMP-3 (cat. No. 444217, Merck Millipore, Darmstadt, Germany) as previously described. […] ADAM17/TACE (Sf 21 (baculovirus)-derived, R & D systems, Minneapolis, MO, USA) was diluted and evaluated in 25 mM Tris, 2.5 μM ZnCl2, 0.005% Brij-35, pH 9.0. All stocks of the compounds were evaluated for the presence of endotoxin using the EndoZyme II assay (Hyglos bioMérieux, Bernried am Starnberger See, Germany). […]
To determine the inhibition of gelatinolytic activity, we used a previously optimized gelatin degradation assay. […] Next, dye-quenched gelatin (DQ™-gelatin, Invitrogen, Carlsbad, CA, USA) was added at a final concentration of 2.5 µg/mL and the increase in fluorescence over time was measured with the CLARIOstar microplate reader (BMG Labtech, Ortenberg, Germany). […]

Assay [1] deals with T2, recombinant human MMP-9 monomers (Homo sapiens, UniProt P14780).
T2 construct: made in house; host or cells: Sf9 insect cells
T2 sequence (P14780 107-707 limits assumed): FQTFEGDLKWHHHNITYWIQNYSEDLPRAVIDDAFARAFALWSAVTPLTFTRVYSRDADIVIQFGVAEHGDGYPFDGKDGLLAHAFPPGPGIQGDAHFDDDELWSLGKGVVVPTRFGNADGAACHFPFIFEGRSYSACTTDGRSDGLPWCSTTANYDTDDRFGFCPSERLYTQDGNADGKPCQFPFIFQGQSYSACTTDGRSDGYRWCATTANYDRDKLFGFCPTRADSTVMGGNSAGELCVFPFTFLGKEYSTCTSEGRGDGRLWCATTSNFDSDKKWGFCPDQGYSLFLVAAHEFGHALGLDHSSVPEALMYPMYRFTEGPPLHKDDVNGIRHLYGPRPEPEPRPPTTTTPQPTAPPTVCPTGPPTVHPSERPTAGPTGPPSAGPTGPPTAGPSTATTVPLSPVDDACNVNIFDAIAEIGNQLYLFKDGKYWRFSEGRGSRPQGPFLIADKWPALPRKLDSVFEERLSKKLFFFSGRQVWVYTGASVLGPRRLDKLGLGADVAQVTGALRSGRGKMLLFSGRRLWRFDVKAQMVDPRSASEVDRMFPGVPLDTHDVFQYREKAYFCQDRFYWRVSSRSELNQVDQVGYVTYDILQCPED
The assay is described as follows: Fluorogenic peptide (OmniMMP) degradation assay, recombinant MMP-9 monomers. The following applies: recombinant human MMP-9 (Sf9) mono. As to the method: (§1) Compounds 5 and 7 were synthesized as previously reported. Full-length human proMMP-9 was produced by recombinant expression in Sf9 insect cells and purified by gelatin-Sepharose chromatography as previously described. Stable full-length proMMP-9 monomers and trimers were separated by glycerol gradient ultracentrifugation as previously described. ProMMP-9 mixture and the separated monomers and trimers were activated by incubation with the catalytic domain of MMP-3 (cat. No. 444217, Merck Millipore, Darmstadt, Germany) as previously described. Activation of proMMP-9 was confirmed by a band shift of ±10 kDa, corresponding to the removal of the auto-inhibitory propeptide domain and by detection of gelatinolytic activity with a previously described gelatin degradation assay. MMP-9 monomers and trimers purified from human neutrophils were purchased (Cat. No. 444,231 and 444232, Sigma-Aldrich, St. Louis, MO, USA). Examples of sample purities and activations can be found in Supplementary Figure S1. Recombinant human proMMP-2 (CHO cell-derived), proMMP-3 (NS0 cell-derived), proMMP-7 (NS0 cell-derived) and proMMP-8 (NS0 cell-derived) were purchased from R & D systems (Minneapolis, MN, USA), dissolved in assay buffer (150 mM NaCl, 5 mM CaCl2, 0.01% Tween-20, 50 mM Tris, pH 7.4) to a concentration of 100 µg/mL and activated by incubation with 1 mM p-aminophenylmercuric acetate for, respectively, 1h, 6h, 2h and 1h. Activation of MMPs was confirmed by a band shift of approximately 10 kDa, corresponding to the removal of the propeptide domain. MMP-14/MT1-MMP (NS0 cell-derived) was also purchased from R & D systems (Minneapolis, MN, USA) and activated by incubation with recombinant human furin (cat. No. 1503-SE-010, R & D systems, Minneapolis, MO, USA) in activation buffer (50 mM Tris, 1 mM CaCl2, 0.5% Brij-35, pH 9) for 1.5 h and activity was tested in assay buffer (50 mM Tris, 3 mM CaCl2, 1 µM ZnCl2, pH 8.5). Active human neutrophil elastase (NE) was purchased from Abcam (Cambridge, UK) and for activity assays of NE the assay buffer was replaced by 200 mM Tris, pH 8.8. ADAM17/TACE (Sf 21 (baculovirus)-derived, R & D systems, Minneapolis, MO, USA) was diluted and evaluated in 25 mM Tris, 2.5 μM ZnCl2, 0.005% Brij-35, pH 9.0. All stocks of the compounds were evaluated for the presence of endotoxin using the EndoZyme II assay (Hyglos bioMérieux, Bernried am Starnberger See, Germany). Endotoxin levels in all concentrated stocks (2.5 mg/mL) were below the accepted limit of 0.5 EU/mL.
(§2) To determine the inhibition of gelatinolytic activity, we used a previously optimized gelatin degradation assay. […] […] […] BML-P126-0001, Enzo Life Sciences, Farmingdale, NY, USA) was used at a final concentration of 2.5 µg/mL. For ADAM17 the fluorogenic peptide Mca-PLAQAV-Dpa-RSSSR-NH2 (ES003, R & D systems, Minneapolis, MO, USA) and for neutrophil elastase the fluorogenic substrate MeOSuc-AAPV-AMC (cat. no. 324740, Merck Millipore, Darmstadt, Germany) were used. Proteolytic activity was determined by linear regression of the fluorescence curve and the percentage inhibition was calculated through comparison with the positive control (no inhibitors). When testing supernatants from human neutrophils, the assay was performed in the presence of 20 µM neutrophil elastase inhibitor (Elastase Inhibitor IV, Calbiochem, Darmstadt, Germany).

Assay [2] has as its target T3, recombinant human MMP-9 mixture (± 70% monomers and ± 30% trimers) (Homo sapiens, UniProt P14780).
T3 construct: made in house; host or cells: Sf9 insect cells
The assay is described as follows: Fluorogenic peptide (OmniMMP) degradation assay, recombinant MMP-9 mixture. Conditions: recombinant human MMP-9 (Sf9) mix. The protocol:
as §1, §2

Results on 2 molecules are retold here after paper PMC7408547, “Bivalent Inhibitor with Selectivity for Trimeric MMP-9 Amplifies Neutrophil Chemotaxis and Enables Functional Studies on MMP-9 Proteoforms” (Cells, 2020).

For orientation: IC50 means the concentration that gives 50% inhibition. Usually IC25 stands for the concentration at which the effect reaches the 25% level. The term IC75 denotes the concentration needed for an effect of 75%.

T3 sequence (P14780 107-707 limits assumed): as above
T1 sequence (P08254 100-477): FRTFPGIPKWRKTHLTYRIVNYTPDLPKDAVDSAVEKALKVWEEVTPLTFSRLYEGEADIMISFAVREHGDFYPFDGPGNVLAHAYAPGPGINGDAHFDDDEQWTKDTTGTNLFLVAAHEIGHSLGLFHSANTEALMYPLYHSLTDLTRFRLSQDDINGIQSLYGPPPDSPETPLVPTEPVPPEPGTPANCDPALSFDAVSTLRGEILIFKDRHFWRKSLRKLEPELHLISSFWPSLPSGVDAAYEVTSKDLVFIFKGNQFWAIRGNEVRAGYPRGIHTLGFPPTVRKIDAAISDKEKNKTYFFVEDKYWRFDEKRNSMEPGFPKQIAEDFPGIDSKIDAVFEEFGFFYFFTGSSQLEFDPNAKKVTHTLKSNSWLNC

Molecule `CC(C)[C@H](C(=O)O)N(CCNC(=O)c1ccccc1)S(=O)(=O)c1ccc(-c2ccccc2)cc1` [Compound 5] returned an IC50 on MMP-3 of 965 nM. In addition, in assay [1], the IC25 is 232 nM, the IC50 was found to be 718 nM and the IC75 is recorded as 2228 nM. In assay [2], the IC25 is 228 nM, the IC50 was determined as 726 nM and the IC75 is 2309 nM.

On to `CC(C)[C@H](C(=O)O)N(CCNC(=O)c1cccc(C(=O)NCCN([C@@H](C(=O)O)C(C)C)S(=O)(=O)c2ccc(-c3ccccc3)cc2)c1)S(=O)(=O)c1ccc(-c2ccccc2)cc1` [Compound 7], for which 7.7 nM corresponded to half-maximal inhibition on MMP-3 (IC50). In addition, in assay [1], the 25% effect concentration (IC25) was determined as 10.5 nM, the half-maximal inhibitory concentration (IC50) stood at 56 nM and the IC75 was 296 nM. Moreover, in assay [2], the IC25 is recorded as 1.4 nM, the IC50 worked out at 15 nM and the IC75 is given as 169 nM.
